Like-named read-outs stand apart in the source and are kept apart here.
Tests used:
U373 cells = assay: In vitro cytotoxicity assays with small molecules followed by Maraba virus infection; details: for enhancement of viral oncolysis (cell viability): viability 48 h later
[1] = system: U373 (glioblastoma) cells; type: cell-based, human
[2] = system: OVCAR-8 (ovarian carcinoma) cells; type: cell-based, human
[3] = system: NCI-H226 (non-small cell lung carcinoma) cells; assay: Genome-wide synthetic lethal RNAi screen with Maraba virus infection, resazurin cell viability; details: synthetic lethal hits, siRNA against the gene plus Maraba virus
[4] = synthetic lethal hits, siRNA against the gene plus Maraba virus
[5] = siRNA against the named gene plus Maraba virus, synthetic lethal hit list

Molecule: COc1cc(-c2cccc(C(N)=O)c2)cc(C=O)c1O [Compound 2, 3′-formyl-4′-hydroxy-5′-methoxy-[1,1′-biphenyl]-3-carboxamide]
- lowest, maximally effective dose in cell culture experiments (U373 cells): 20 µM
- combination index (CI) with Maraba virus (U373 cells; U373, across a range of doses and MOIs): < 1.0
- enhancement of viral oncolysis (cell viability) (U373 cells; U373, drug 4 h prior to Maraba virus infection): but not 4 hours
- enhancement of viral oncolysis (cell viability) (U373 cells; U373, drug 48 h prior to Maraba virus infection): greatly enhanced viral oncolysis

Molecule: BMP4
- COMPOSITE MAD SCORE U373 [1, 4]: −2.038
- COMPOSITE MAD SCORE OVCAR8 [2, 4]: −2.516
- COMPOSITE MAD SCORE NCIH226 [3]: −2.642

Molecule: NODAL
- COMPOSITE MAD SCORE U373 [1, 5]: −2.315
- COMPOSITE MAD SCORE OVCAR8 [2, 5]: −4.721

Molecule: tunicamycin [reference compound]
- virus-mediated killing after chemically induced ER preload (U373 cells; pulse 48 hours before virus infection (5 ug/mL 24 h, 24 h washout)): enhance virus-mediated killing
